Measured values reported in patent publication US20230295118A1 (EnhancedBio Inc., priority 2022, published 2023).

How the values were obtained:
Format in all cases: cell-based
[1] = system: mantle cell lymphoma cell (Mino or JeKo-1); test: Antiproliferative effect, MTS cell viability assay; conditions: 72 h; for IC50: mantle cell lymphoma cell (Mino or JeKo-1), MTS assay, read-out: IC50 (anti-proliferation); for inhibition of cell proliferation of Mino cells: 0-1 μM, result in words
Protocol: Antiproliferative effect of the exemplary compounds was assessed in B-cell malignancy models.
To assess the effect of the exemplary compounds on cell viability in B-cell malignancy models by degradation of CDK4/6 proteins, Mino cells were treated with varying concentrations of exemplary compounds (0, 0.0001, 0.001, 0.01, 0.1, 1 μM) or positive control (palbociclib and abemaciclib). Under these conditions, cell viability was determined by an MTS assay. Cytotoxicity was assayed by the determination of reduced tetrazolium (formazan) created by metabolically active cells as detected at 490 nanometers (nm) absorbance using a microplate reader (BMG Labtech, Cary, NC, USA).
The exemplary compounds attenuated the viability of Mino cells in a concentration-dependent manner at 72 h post treatment. Results are shown in Table 1 and FIGS. 2-15 for each exemplary compound.

[2] = biological target: T1, CDK6 (Homo sapiens, UniProt Q00534); test: CDK6 degradation (DC50, Dmax)
T1 construct: endogenous in cells

[3] = biological target: T2, CDK4 (Homo sapiens, UniProt P11802); test: CDK4 degradation (DC50, Dmax)
T2 construct: endogenous in cells
T2 sequence (P11802 whole entry): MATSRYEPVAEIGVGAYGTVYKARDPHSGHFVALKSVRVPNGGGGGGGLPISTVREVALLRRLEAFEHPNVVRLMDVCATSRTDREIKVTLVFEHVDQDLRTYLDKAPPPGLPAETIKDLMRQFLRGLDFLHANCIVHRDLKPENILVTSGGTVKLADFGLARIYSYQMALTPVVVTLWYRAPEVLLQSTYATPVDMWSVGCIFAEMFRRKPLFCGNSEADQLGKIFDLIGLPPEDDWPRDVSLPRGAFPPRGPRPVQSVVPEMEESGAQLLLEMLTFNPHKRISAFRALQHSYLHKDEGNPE

T1 sequence (Q00534 whole entry): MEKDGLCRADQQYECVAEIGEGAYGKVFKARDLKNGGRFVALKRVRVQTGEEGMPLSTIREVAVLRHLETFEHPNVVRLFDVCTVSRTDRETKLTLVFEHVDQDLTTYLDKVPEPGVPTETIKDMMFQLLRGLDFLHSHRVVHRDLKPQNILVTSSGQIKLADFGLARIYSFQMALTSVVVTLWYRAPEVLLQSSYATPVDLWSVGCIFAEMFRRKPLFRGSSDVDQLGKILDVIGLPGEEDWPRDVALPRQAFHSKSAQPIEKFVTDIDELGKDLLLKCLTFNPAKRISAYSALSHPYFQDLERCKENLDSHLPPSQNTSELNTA

SMILES	IC50 [1] [nM]	DC50 [2] [nM]	Dmax [2] [%]	DC50 [3] [nM]	Dmax [3] [%]	inhibition of cell proliferation of Mino cells [1]
CC(=O)c1c(C)c2cnc(Nc3ccc(C4CCN(C(=O)C5CN(c6ccc7c(c6)C(=O)N(C6CCC(=O)NC6=O)C7=O)C5)CC4)cn3)nc2n(C2CCCC2)c1=O (centres unmarked) [Compound 129, 5-(3-(4-(6-((6-acetyl-8-cyclopentyl-5-methyl-7-oxo-7,8-dihydropyrido[2,3-d]pyrimidin-2-yl)amino)pyridin-3-yl)piperidine-1-carbonyl)azetidin-1-yl)-2-(2,6-dioxopiperidin-3-yl)isoindoline-1,3-dione]	50 to 200	50 to 200	> 80	50 to 200	> 80	–
CC(=O)c1c(C)c2cnc(Nc3ccc(N4CCN(CCCNc5ccc(N6CCC(=O)NC6=O)cc5)CC4)cn3)nc2n(C2CCCC2)c1=O [Compound 105, 1-(4-((3-(4-(6-((6-acetyl-8-cyclopentyl-5-methyl-7-oxo-7,8-dihydropyrido[2,3-d]pyrimidin-2-yl)amino)pyridin-3-yl)piperazin-1-yl)propyl)amino)phenyl)dihydro-pyrimidine-2,4 (1H,3H)-dione]	< 50	< 50	> 80	< 50	> 80	–
CC(=O)c1c(C)c2cnc(Nc3ccc(N4CCN(C(=O)C5CN(c6ccc7c(c6)CN(C6CCC(=O)NC6=O)C7=O)C5)CC4)cn3)nc2n(C2CCCC2)c1=O (centres unmarked) [Compound 122, 3-(5-(3-(4-(6-((6-acetyl-8-cyclopentyl-5-methyl-7-oxo-7,8-dihydropyrido[2,3-d]pyrimidin-2-yl)amino)pyridin-3-yl)piperazine-1-carbonyl)azetidin-1-yl)-1-oxoisoindolin-2-yl) piperidine-2,6-dione]	< 50	< 50	> 80	< 50	> 80	–
CC(=O)c1c(C)c2cnc(Nc3ccc(N4CCN(CC5CN(c6ccc(C(=O)NC7CCC(=O)NC7=O)cc6)C5)CC4)cn3)nc2n(C2CCCC2)c1=O (centres unmarked) [Compound 119, 4-(3-((4-(6-((6-acetyl-8-cyclopentyl-5-methyl-7-oxo-7,8-dihydropyrido[2,3-d]pyrimidin-2-yl)amino)pyridin-3-yl)piperazin-1-yl)methyl)azetidin-1-yl)-N-(2,6-dioxopiperidin-3-yl)benzamide]	< 50	50 to 200	> 80	50 to 200	> 80	–
CC(=O)c1c(C)c2cnc(Nc3ccc(N4CCN(C5CCN(C(=O)N6CCC(CN7CCN(c8ccc9c(c8)C(=O)N(C8CCC(=O)NC8=O)C9=O)CC7)CC6)CC5)CC4)cn3)nc2n(C2CCCC2)c1=O (centres unmarked) [Compound 86, 5-(4-((1-(4-(4-(6-((6-acetyl-8-cyclopentyl-5-methyl-7-oxo-7,8-dihydropyrido[2,3-d]pyrimidin-2-yl)amino)pyridin-3-yl)piperazin-1-yl)piperidine-1-carbonyl)piperidin-4-yl)methyl)piperazin-1-yl)-2-(2,6-dioxopiperidin-3-yl) isoindoline-1,3-dione]	50 to 200	50 to 200	> 60	50 to 200	> 60	–
CC(=O)c1c(C)c2cnc(Nc3ccc(N4CCN(C(=O)N5CCC(CN6CCN(c7ccc8c(c7)CN(C7CCC(=O)NC7=O)C8=O)CC6)CC5)CC4)cn3)nc2n(C2CCCC2)c1=O (centres unmarked) [Compound 12, 3-(5-(4-((1-(4-(6-((6-acetyl-8-cyclopentyl-5-methyl-7-oxo-7,8-dihydropyrido[2,3-d]pyrimidin-2-yl)amino)pyridin-3-yl)piperazine-1-carbonyl)piperidin-4-yl)methyl)piperazin-1-yl)-1-oxoisoindolin-2-yl)piperidine-2,6-dione]	50 to 200	> 200	> 60	> 200	> 60	–
CC(=O)c1c(C)c2cnc(Nc3ccc(N4CCN(C5CCN(c6ccc7c(c6)C(=O)N(C6CCC(=O)NC6=O)C7=O)CC5)CC4)cn3)nc2n(C2CCCC2)c1=O (centres unmarked) [Compound 63, 5-(4-(4-(6-((6-acetyl-8-cyclopentyl-5-methyl-7-oxo-7,8-dihydropyrido[2,3-d]pyrimidin-2-yl)amino)pyridin-3-yl)piperazin-1-yl)piperidin-1-yl)-2-(2,6-dioxopiperidin-3-yl)isoindoline-1,3-dione]	< 50	< 50	> 80	50 to 200	> 80	dose-dependent inhibition of cell proliferation

Second part, led by results:

IC50 [1] [nM]	DC50 [2] [nM]	Dmax [2] [%]	DC50 [3] [nM]	Dmax [3] [%]	SMILES	inhibition of cell proliferation of Mino cells [1]
< 50	< 50	> 80	50 to 200	> 80	Cc1nc2c(F)cc(-c3nc(Nc4ccc(CN5CCN(C6CCN(c7ccc(NC8CCC(=O)NC8=O)cc7)CC6)CC5)cn4)ncc3F)cc2n1C(C)C (centres unmarked) [Compound 168, 3-((4-(4-(4-((6-((5-fluoro-4-(4-fluoro-1-isopropyl-2-methyl-1H-benzo[d]imidazol-6-yl)pyrimidin-2-yl)amino)pyridin-3-yl)methyl)piperazin-1-yl)piperidin-1-yl)phenyl)amino) piperidine-2,6-dione]	–
< 50	< 50	> 80	< 50	> 80	CN(C)C(=O)c1cc2cnc(Nc3ccc(N4CCN(CCCNc5ccc6c(c5)C(=O)N(C5CCC(=O)NC5=O)C6=O)CC4)cn3)nc2n1C1CCCC1 (centres unmarked) [Compound 75, 7-cyclopentyl-2-((5-(4-(3-((2-(2,6-dioxopiperidin-3-yl)-1,3-dioxoisoindolin-5-yl)amino)propyl)piperazin-1-yl)pyridin-2-yl)amino)-N,N-dimethyl-7H-pyrrolo[2,3-d]pyrimidine-6-carboxamide]	–
< 50	50 to 200	> 80	50 to 200	> 80	Cc1nc2c(F)cc(-c3nc(Nc4ccc(CN5CCN(CCCNc6cccc7c6C(=O)N(C6CCC(=O)NC6=O)C7=O)CC5)cn4)ncc3F)cc2n1C(C)C (centres unmarked) [Compound 100, 2-(2,6-dioxopiperidin-3-yl)-4-((3-(4-((6-((5-fluoro-4-(4-fluoro-1 isopropyl-2-methyl-1H-benzo[d]imidazol-6-yl)pyrimidin-2-yl)amino)pyridin-3-yl)methyl)piperazin-1-yl)propyl)amino) isoindoline-1,3-dione]	dose-dependent inhibition of cell proliferation
< 50	50 to 200	> 80	50 to 200	> 80	Cc1nc2c(F)cc(-c3nc(Nc4ccc(CN5CCN(C6CCN(c7ccc8c(c7)C(=O)N(C7CCC(=O)NC7=O)C8=O)CC6)CC5)cn4)ncc3F)cc2n1C(C)C (centres unmarked) [Compound 165, 2-(2,6-dioxopiperidin-3-yl)-5-(4-(4-((6-((5-fluoro-4-(4-fluoro-1-isopropyl-2-methyl-1H-benzo[d]imidazol-6-yl)pyrimidin-2-yl)amino)pyridin-3-yl)methyl)piperazin-1-yl)piperidin-1-yl)isoindoline-1,3-dione]	–
< 50	< 50	> 80	< 50	> 80	Cc1nc2c(F)cc(-c3nc(Nc4ccc(CC5CCN(CC6CCN(c7ccc(C(=O)NC8CCC(=O)NC8=O)cc7)CC6)CC5)cn4)ncc3F)cc2n1C(C)C (centres unmarked) [Compound 159, N-(2,6-dioxopiperidin-3-yl)-4-(4-((4-((6-((5-fluoro-4-(4-fluoro-1-isopropyl-2-methyl-1H-benzo[d]imidazol-6-yl)pyrimidin-2-yl)amino)pyridin-3-yl)methyl)piperidin-1-yl)methyl)piperidin-1-yl)benzamide]	–
< 50	< 50	> 80	< 50	> 80	Cc1nc2c(F)cc(-c3nc(Nc4ccc(CC5CCN(CC6CCN(c7ccc8c(c7)C(=O)N(C7CCC(=O)NC7=O)C8=O)CC6)CC5)cn4)ncc3F)cc2n1C(C)C (centres unmarked) [Compound 157, 2-(2,6-dioxopiperidin-3-yl)-5-(4-((4-((6-((5-fluoro-4-(4-fluoro-1-isopropyl-2-methyl-1H-benzo[d]imidazol-6-yl)pyrimidin-2-yl)amino)pyridin-3-yl)methyl)piperidin-1-yl)methyl)piperidin-1-yl)isoindoline-1,3-dione]	–
< 50	< 50	> 80	< 50	> 80	Cc1nc2c(F)cc(-c3nc(Nc4ccc(CN5CCN(CCCNc6ccc(N7CCC(=O)NC7=O)cc6)CC5)cn4)ncc3F)cc2n1C(C)C [Compound 107, 1-(4-((3-(4-((6-((5-fluoro-4-(4-fluoro-1-isopropyl-2-methyl-1H-benzo[d]imidazol-6-yl)pyrimidin-2-yl)amino)pyridin-3-yl)methyl)piperazin-1-yl)propyl)amino)phenyl)dihydro-pyrimidine-2,4 (1H,3H)-dione]	–
50 to 200	50 to 200	> 60	50 to 200	> 60	Cc1nc2c(F)cc(-c3nc(Nc4ccc(CN5CCN(C6CN(c7cccc8c7CN(C7CCC(=O)NC7=O)C8=O)C6)CC5)cn4)ncc3F)cc2n1C(C)C (centres unmarked) [Compound 99, 3-(4-(3-(4-((6-((5-fluoro-4-(4-fluoro-1-isopropyl-2-methyl-1H-benzo[d]imidazol-6-yl)pyrimidin-2-yl)amino)pyridin-3-yl)methyl)piperazin-1-yl)azetidin-1-yl)-1-oxoisoindolin-2-yl)piperidine-2,6-dione]	–
